Experimental data: patent US20240327430A1 (Breakpoint Therapeutics GmbH, priority 2023, published 2024)
Where two headings read alike, the source gives them in different places.

Biological target: truncated Polθ protein (Polθ-Hel containing the helicase domain (67-894)) (Homo sapiens (Human), UniProt O75417)
Assay: Polθ ATPase assay (Biological Assay 1, ADP-Glo luminescence)
Assay type: biochemical
Summary of the method: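 Polθ-Hel (0.5 nM) with 500 nM ssDNA oligo in pH 8.8 Tris buffer (5 mM MgCl2, 1 mM DTT) was preincubated with compound 30 min at 23 °C. The reaction ran 60 min after 60 μM ATP was added (stated as the added solution, not final). ADP formed was detected by ADP-Glo luminescence to derive IC50.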

[1] = Polθ-Hel 0.5 nM, DNA substrate 500 nM, ATP 60 μM, 23° C., read-out: Pole ATPase assay IC50
[2] = Table B, compounds of Experimental Part B, in vitro, read-out: Polθ ATPase assay IC50

Sequence of truncated Polθ protein (Polθ-Hel containing the helicase domain (67-894)) (O75417 67-894): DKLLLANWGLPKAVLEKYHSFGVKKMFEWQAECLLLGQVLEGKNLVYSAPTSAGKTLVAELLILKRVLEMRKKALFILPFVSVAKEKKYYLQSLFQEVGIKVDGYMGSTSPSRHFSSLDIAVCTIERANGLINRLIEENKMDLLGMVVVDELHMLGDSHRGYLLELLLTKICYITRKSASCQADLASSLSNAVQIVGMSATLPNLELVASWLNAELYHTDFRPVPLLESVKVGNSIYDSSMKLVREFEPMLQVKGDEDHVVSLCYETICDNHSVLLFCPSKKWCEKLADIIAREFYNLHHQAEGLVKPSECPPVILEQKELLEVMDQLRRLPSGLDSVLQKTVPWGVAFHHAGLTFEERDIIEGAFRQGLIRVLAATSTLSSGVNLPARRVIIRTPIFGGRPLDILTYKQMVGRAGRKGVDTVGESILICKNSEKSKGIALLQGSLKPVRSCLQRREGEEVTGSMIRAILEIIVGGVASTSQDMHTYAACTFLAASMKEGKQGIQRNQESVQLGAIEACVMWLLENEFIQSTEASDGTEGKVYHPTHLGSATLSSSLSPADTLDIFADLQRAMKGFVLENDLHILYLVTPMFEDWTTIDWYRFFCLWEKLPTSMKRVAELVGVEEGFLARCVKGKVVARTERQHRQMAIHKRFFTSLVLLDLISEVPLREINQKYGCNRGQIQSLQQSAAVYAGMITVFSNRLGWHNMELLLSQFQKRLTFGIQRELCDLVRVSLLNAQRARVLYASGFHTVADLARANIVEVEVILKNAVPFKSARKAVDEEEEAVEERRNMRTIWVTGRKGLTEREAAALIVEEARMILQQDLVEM

| Structure (SMILES) | IC50 [1] [nM] | IC50 [2] [nM] |
| --- | --- | --- |
| COc1cnc(Cl)cc1-c1cc(C)ncc1C(=O)Nc1nc2cnc(N3CCC(OC)CC3)nc2s1 [Example 80, 2′-chloro-5′-methoxy-N-[5-(4-methoxypiperidin-1-yl)-[1,3]thiazolo[5,4-d]pyrimidin-2-yl]-6-methyl-[4,4′-bipyridine]-3-carboxamide] | < 100 | – |
| COc1cnc(Cl)cc1-c1cc(C)ncc1C(=O)Nc1nc2cnc(N3CC4(CC(O)C4)C3)nc2s1 [Example 81, 2′-chloro-N-(5-{6-hydroxy-2-azaspiro[3.3]heptan-2-yl}-[1,3]thiazolo[5,4-d]pyrimidin-2-yl)-5′-methoxy-6-methyl-[4,4′-bipyridine]-3-carboxamide] | < 100 | – |
| COc1cnc(Cl)cc1-c1cc(C)ncc1C(=O)Nc1nc2cnc(N3CC4(CCOC4)C3)nc2s1 [Example 82, 2′-chloro-5′-methoxy-6-methyl-N-(5-{6-oxa-2-azaspiro[3.4]octan-2-yl}-[1,3]thiazolo[5,4-d]pyrimidin-2-yl)-[4,4′-bipyridine]-3-carboxamide] | < 100 | – |
| COc1cnc(Cl)cc1-c1cc(C)ncc1C(=O)Nc1nc2ccc(S(C)(=N)=O)cc2s1 (centres unmarked) [Example 83, 2′-chloro-N-{6-[imino(methyl)oxo-λ^6-sulfanyl]-1,3-benzothiazol-2-yl}-5′-methoxy-6-methyl-[4,4′-bipyridine]-3-carboxamide] | < 100 | – |
| COc1cnc(Cl)cc1-c1cc(C)ncc1C(=O)Nc1nc2ccc(N3CCCS3(=O)=O)cc2s1 [Example 84] | < 100 | – |
| COc1cnc(Cl)cc1-c1cc(C)ncc1C(=O)Nc1nc2ccc(N3CC[C@@H](O)CC3=O)cc2s1 [Example 85, 2′-chloro-N-{6-[(4R)-4-hydroxy-2-oxopiperidin-1-yl]-1,3-benzothiazol-2-yl}-5′-methoxy-6-methyl-[4,4′-bipyridine]-3-carboxamide] | < 100 | – |
| COc1cnc(Cl)cc1-c1cc(C)ncc1C(=O)Nc1nc2ccc(N3CCN(C)CC3=O)cc2s1 [Example 86, 2′-chloro-5′-methoxy-6-methyl-N-[6-(4-methyl-2-oxopiperazin-1-yl)-1,3-benzothiazol-2-yl]-[4,4′-bipyridine]-3-carboxamide] | < 100 | – |
| COc1cnc(Cl)cc1-c1cc(C)ncc1C(=O)Nc1nc2cnc(C3=CCOCC3)nc2s1 [Example 87, 2′-chloro-N-[5-(3,6-dihydro-2H-pyran-4-yl)-[1,3]thiazolo[5,4-d]pyrimidin-2-yl]-5′-methoxy-6-methyl-[4,4′-bipyridine]-3-carboxamide] | < 100 | – |
| COc1cnc(C(F)(F)F)cc1-c1cc(C)ncc1C(=O)Nc1nc2cnc(N3CCC(O)CC3)nc2s1 [Example 88, N-[5-(4-hydroxypiperidin-1-yl)-[1,3]thiazolo[5,4-d]pyrimidin-2-yl]-5′-methoxy-6-methyl-2′-(trifluoromethyl)-[4,4′-bipyridine]-3-carboxamide] | < 100 | – |
| COc1cnc(C(F)F)cc1-c1cc(C)ncc1C(=O)Nc1nc2cnc(N3CCOCC3)nc2s1 [Example 89] | < 100 | – |
| COc1cnc(Cl)cc1-c1cc(C)ncc1C(=O)Nc1nc2cnc(C(F)(F)F)nc2s1 [Example 90, 2′-chloro-5′-methoxy-6-methyl-N-[5-(trifluoromethyl)-[1,3]thiazolo[5,4-d]pyrimidin-2-yl]-[4,4′-bipyridine]-3-carboxamide] | < 100 | – |
| COc1cnc(Cl)cc1-c1cc(C)ncc1C(=O)Nc1nc2cnc(C)nc2s1 [Example 91, 2′-chloro-5′-methoxy-6-methyl-N-{5-methyl-[1,3]thiazolo[5,4-d]pyrimidin-2-yl}-[4,4′-bipyridine]-3-carboxamide] | < 100 | – |
| COc1cnc(C)cc1-c1cc(C)ncc1C(=O)Nc1nc2cnc(N3CCOCC3)nc2s1 [Example 92, 5′-methoxy-2′,6-dimethyl-N-[5-(morpholin-4-yl)-[1,3]thiazolo[5,4-d]pyrimidin-2-yl]-[4,4′-bipyridine]-3-carboxamide] | < 100 | – |
| COc1cnc(F)cc1-c1cc(C)ncc1C(=O)Nc1nc2cnc(N3CCOCC3)nc2s1 [Example 93, 2′-fluoro-5′-methoxy-6-methyl-N-[5-(morpholin-4-yl)-[1,3]thiazolo[5,4-d]pyrimidin-2-yl]-[4,4′-bipyridine]-3-carboxamide] | < 100 | – |
| COc1cnc(Cl)cc1-c1cc(C)ncc1C(=O)Nc1nc2cnc(N3CCCCC3=O)nc2s1 [Example 94, 2′-chloro-5′-methoxy-6-methyl-N-[5-(2-oxopiperidin-1-yl)-[1,3]thiazolo[5,4-d]pyrimidin-2-yl]-[4,4′-bipyridine]-3-carboxamide] | < 100 | – |
| COc1cnc(Cl)cc1-c1cc(C)ncc1C(=O)Nc1nc2cnc(NC[C@@H](C)O)nc2s1 [Example 95, 2′-chloro-N-(5-{[(2R)-2-hydroxypropyl]amino}-[1,3]thiazolo[5,4-d]pyrimidin-2-yl)-5′-methoxy-6-methyl-[4,4′-bipyridine]-3-carboxamide] | – | < 100 |

| Structure (SMILES) | IC50 [1] [nM] | IC50 [2] [nM] |
| --- | --- | --- |
| COc1cnc(Cl)cc1-c1cc(C)ncc1C(=O)Nc1nc2cnc(NC[C@H](C)O)nc2s1 [Example 96, 2′-chloro-N-(5-{[(2S)-2-hydroxypropyl]amino}-[1,3]thiazolo[5,4-d]pyrimidin-2-yl)-5′-methoxy-6-methyl-[4,4′-bipyridine]-3-carboxamide] | – | < 100 |
| COc1cnc(Cl)cc1-c1cc(C)ncc1C(=O)Nc1nc2cnc(N3CC(C)(OC)C3)nc2s1 [Example 97, 2′-chloro-5′-methoxy-N-[5-(3-methoxy-3-methylazetidin-1-yl)-[1,3]thiazolo[5,4-d]pyrimidin-2-yl]-6-methyl-[4,4′-bipyridine]-3-carboxamide] | – | < 100 |
| COc1cnc(Cl)cc1-c1cc(C)ncc1C(=O)Nc1nc2c(Br)cccc2s1 [Example 99, N-(4-bromo-1,3-benzothiazol-2-yl)-2′-chloro-5′-methoxy-6-methyl-[4,4′-bipyridine]-3-carboxamide] | – | < 100 |
| COc1cnc(Cl)cc1-c1cc(C)ncc1C(=O)Nc1nc2c(CCC(=O)N(C)C)cccc2s1 [Example 100, 2′-chloro-N-{4-[2-(dimethylcarbamoyl)ethyl]-1,3-benzothiazol-2-yl}-5′-methoxy-6-methyl-[4,4′-bipyridine]-3-carboxamide] | – | < 100 |
| COc1cnc(Cl)cc1-c1cc(C)ncc1C(=O)Nc1nc2cc(OCC#N)ccc2s1 [Example 101, 2′-chloro-N-[5-(cyanomethoxy)-1,3-benzothiazol-2-yl]-5′-methoxy-6-methyl-[4,4′-bipyridine]-3-carboxamide] | – | < 100 |
| CNC(=O)C(F)(F)Oc1ccc2sc(NC(=O)c3cnc(C)cc3-c3cc(Cl)ncc3OC)nc2c1 [Example 102, 2′-chloro-N-{5-[difluoro(methylcarbamoyl)Methoxy]-1,3-benzothiazol-2-yl}-5′-methoxy-6-methyl-[4,4′-bipyridine]-3-carboxamide] | – | < 100 |
| COc1cnc(Cl)cc1-c1cc(C)ncc1C(=O)Nc1nc2cc(Br)ccc2s1 [Example 103, N-(5-bromo-1,3-benzothiazol-2-yl)-2′-chloro-5′-methoxy-6-methyl-[4,4′-bipyridine]-3-carboxamide] | – | < 100 |
| COc1cnc(Cl)cc1-c1cc(C)ncc1C(=O)Nc1nc2cc(OC(F)(F)C(=O)N(C)C)ccc2s1 [Example 104, 2′-chloro-N-{5-[(dimethylcarbamoyl)difluoromethoxy]-1,3-benzothiazol-2-yl}-5′-methoxy-6-methyl-[4,4′-bipyridine]-3-carboxamide] | – | < 100 |
| CNC(=O)c1ccc2sc(NC(=O)c3cnc(C)cc3-c3cc(Cl)ncc3OC)nc2c1 [Example 105, 2′-chloro-5′-methoxy-6-methyl-N-[5-(methylcarbamoyl)-1,3-benzothiazol-2-yl]-[4,4′-bipyridine]-3-carboxamide] | – | < 100 |
| COc1ccc2sc(NC(=O)c3cnc(C)cc3-c3cc(Cl)ncc3OC)nc2c1 [Example 106, 2′-chloro-5′-methoxy-N-(5-methoxy-1,3-benzothiazol-2-yl)-6-methyl-[4,4′-bipyridine]-3-carboxamide] | – | < 100 |
| COCCNC(=O)c1ccc2sc(NC(=O)c3cnc(C)cc3-c3cc(Cl)ncc3OC)nc2c1 [Example 107, 2′-chloro-5′-methoxy-N-{5-[(2-methoxyethyl)carbamoyl]-1,3-benzothiazol-2-yl}-6-methyl-[4,4′-bipyridine]-3-carboxamide] | – | < 100 |
| COc1cnc(Cl)cc1-c1cc(C)ncc1C(=O)Nc1nc2c(OCC(=O)N(C)C)ncnc2s1 [Example 108, 2′-chloro-N-{7-[(dimethylcarbamoyl)methoxy]-[1,3]thiazolo[5,4-d]pyrimidin-2-yl}-5′-methoxy-6-methyl-[4,4′-bipyridine]-3-carboxamide] | – | < 100 |
| COc1cnc(Cl)cc1-c1cc(C)ncc1C(=O)Nc1nc2cc(OCC3CCN(C(C)=O)CC3)ccc2s1 [Example 109, N-{5-[(1-acetylpiperidin-4-yl)methoxy]-1,3-benzothiazol-2-yl}-2′-chloro-5′-methoxy-6-methyl-[4,4′-bipyridine]-3-carboxamide] | – | < 100 |
| COc1cnc(Cl)cc1-c1cc(C)ncc1C(=O)Nc1nc2cc(OCC(=O)N(C)C)ccc2s1 [Example 110, 2′-chloro-N-{5-[(dimethylcarbamoyl)methoxy]-1,3-benzothiazol-2-yl}-5′-methoxy-6-methyl-[4,4′-bipyridine]-3-carboxamide] | – | < 100 |
| COc1cnc(Cl)cc1-c1cc(C)ncc1C(=O)Nc1nc2cc(OCCN3CCOCC3)ccc2s1 [Example 111, 2′-chloro-5′-methoxy-6-methyl-N-{5-[2-(morpholin-4-yl)ethoxy]-1,3-benzothiazol-2-yl}-[4,4′-bipyridine]-3-carboxamide] | – | < 100 |
| COc1cnc(Cl)cc1-c1cc(C)ncc1C(=O)Nc1nc2cc(OC(C)C)ccc2s1 [Example 112, 2′-chloro-5′-methoxy-6-methyl-N-[5-(propan-2-yloxy)-1,3-benzothiazol-2-yl]-[4,4′-bipyridine]-3-carboxamide] | – | < 100 |
